{"source": "paper PMC8989888", "about": "“Development of optimized drug-like small molecule inhibitors of the SARS-CoV-2 3CL protease for treatment of COVID-19” (Nature Communications, 2022)", "key": {"SARS-CoV-2 3CL protease [1]": {"molecular_target": "T1, SARS-CoV-2 3CL protease (Severe acute respiratory syndrome coronavirus 2, UniProt P0DTD1)", "test": "biochemical", "details": "for Normalized SARS-CoV-2 3CL protease activity: 0.2 µM protease with 50 µM tested compound; for Normalized SARS-CoV-2 3CL protease activity / Protease activity (normalized): replicates; for activity against SARS-CoV-2 3CL protease (in words): compound 4 analogs"}, "SARS-CoV-2 3CL protease [2]": {"molecular_target": "T1, SARS-CoV-2 3CL protease", "test": "biochemical"}, "SARS-CoV-2": {"system": "SARS-CoV-2", "test": "microbe, parasite or virus in culture", "format": "cell-based"}, "[3]": {"details": "200 nM protease, read-out: IC50"}}, "note": "“And” between values parts separate entries of the source, which are not always exact repeats. Equal entries are not always repeated. Where two headings read alike, the source gives them in different places.", "data": [{"smiles": "O=S(=O)(NCc1ccccc1)c1ccccc1", "note": "[AZVIII-44D]", "values": [{"measurement": "Normalized SARS-CoV-2 3CL protease activity", "setting": "SARS-CoV-2 3CL protease [1]", "result": "1.234 and 1.326 and 1.299"}, {"measurement": "IC50", "setting": "SARS-CoV-2 3CL protease [1]; [3]", "result": "> 50", "unit": "µM"}]}, {"smiles": "O=C(N[C@@H](CC1CC1)C(=O)N[C@@H](C[C@@H]1CCNC1=O)C(O)S(=O)(=O)O)OCc1ccccc1", "note": "(some centres unmarked) [NK01-14]", "values": [{"measurement": "IC50", "setting": "SARS-CoV-2 3CL protease [1]; 20 nM protease, read-out: SARS-CoV-2 3CLpro IC50", "result": 0.022, "unit": "µM"}, {"measurement": "normalized activity, dose-response curve (Figure S16)", "setting": "SARS-CoV-2 3CL protease [1]; Concentration of inhibitor (nM) 0.19382", "result": "88.3287 and 88.0525"}, {"measurement": "normalized activity, dose-response curve (Figure S16)", "setting": "SARS-CoV-2 3CL protease [1]; Concentration of inhibitor (nM) 0.49485", "result": "79.1436 and 83.9088"}, {"measurement": "normalized activity, dose-response curve (Figure S16)", "setting": "SARS-CoV-2 3CL protease [1]; Concentration of inhibitor (nM) 0.79588", "result": "76.0359 and 72.2376"}, {"measurement": "normalized activity, dose-response curve (Figure S16)", "setting": "SARS-CoV-2 3CL protease [1]; Concentration of inhibitor (nM) 1.09691", "result": "63.3978 and 55.1105"}, {"measurement": "normalized activity, dose-response curve (Figure S16)", "setting": "SARS-CoV-2 3CL protease [1]; Concentration of inhibitor (nM) 1.39794", "result": "56.2155 and 53.3149"}, {"measurement": "normalized activity, dose-response curve (Figure S16)", "setting": "SARS-CoV-2 3CL protease [1]; Concentration of inhibitor (nM) 1.69897", "result": "37.1547 and 46.616"}, {"measurement": "normalized activity, dose-response curve (Figure S16)", "setting": "SARS-CoV-2 3CL protease [1]; Concentration of inhibitor (nM) 2", "result": "24.2403 and 25.2762"}, {"measurement": "normalized activity, dose-response curve (Figure S16)", "setting": "SARS-CoV-2 3CL protease [1]; Concentration of inhibitor (nM) 2.30103", "result": "7.666 and 9.392"}, {"measurement": "normalized activity, dose-response curve (Figure S16)", "setting": "SARS-CoV-2 3CL protease [1]; Concentration of inhibitor (nM) -0.10721", "result": "96.8923 and 94.268"}, {"measurement": "normalized activity, dose-response curve (Figure S16)", "setting": "SARS-CoV-2 3CL protease [1]; Concentration of inhibitor (nM) -0.40824", "result": "109.254 and 100"}, {"measurement": "observed inactivation rate vs compound concentration (Figure S19, replicate values)", "setting": "SARS-CoV-2 3CL protease [2]", "result": "0.0144 and -0.00118 and 0.0245 and 0.0068 and 0.0252 and 0.0272 and 0.0287 and 0.0225 and 0.0192 and -0.00612 and 0.0023 and 0.0187"}, {"measurement": "kinact/KI", "setting": "SARS-CoV-2 3CL protease [2]; read-out: SARS-CoV-2 3CLpro kinact/KI", "result": 71700, "unit": "M⁻¹ s⁻¹"}, {"measurement": "inhibition of SARS-CoV-2 (Figure s17b dose-response, replicate values)", "setting": "SARS-CoV-2", "result": "107.44 and 106.681 and 107.657 and 104.164 and 95.5823 and 98.4941 and 57.1014 and 42.1437 and 64.5278 and 21.8135 and 20.6648 and 21.9136 and 20.2988 and 22.5837 and -3.217 and 20.0515 and 23.307 and 7.747 and 3.643 and 5.208 and 12.2626"}, {"measurement": "EC50", "setting": "SARS-CoV-2; Severe acute respiratory syndrome coronavirus 2, 24 h, read-out: SARS-CoV-2 Huh-7ACE2 EC50", "result": 26, "unit": "nM"}]}, {"smiles": "CCOC(=O)C=CC(CC1CCNC1=O)NC(=O)C(CC(C)C)NC(=O)OCc1ccccc1", "note": "(centres unmarked) [AZVIII-41A]", "values": [{"measurement": "Normalized SARS-CoV-2 3CL protease activity", "setting": "SARS-CoV-2 3CL protease [1]", "result": "0.05469 and 0.07659 and 0.08287"}, {"measurement": "IC90", "setting": "SARS-CoV-2 3CL protease [1]; 200 nM protease", "result": "> 50", "unit": "µM"}, {"measurement": "Protease activity (normalized)", "setting": "SARS-CoV-2 3CL protease [1]; 200 nM protease, log10[nM] 0.404879", "result": "0.9534 and 1.001 and 1.046"}, {"measurement": "Protease activity (normalized)", "setting": "SARS-CoV-2 3CL protease [1]; 200 nM protease, log10[nM] 0.882", "result": "0.9954 and 1.035 and 1.1072"}, {"measurement": "Protease activity (normalized)", "setting": "SARS-CoV-2 3CL protease [1]; 200 nM protease, log10[nM] 1.35912", "result": "0.9788 and 1.032 and 1.063"}, {"measurement": "Protease activity (normalized)", "setting": "SARS-CoV-2 3CL protease [1]; 200 nM protease, log10[nM] 1.83624", "result": "0.8536 and 0.8662 and 0.892"}, {"measurement": "Protease activity (normalized)", "setting": "SARS-CoV-2 3CL protease [1]; 200 nM protease, log10[nM] 2.31336", "result": "0.8339 and 0.8695 and 0.9444"}, {"measurement": "Protease activity (normalized)", "setting": "SARS-CoV-2 3CL protease [1]; 200 nM protease, log10[nM] 2.79048", "result": "0.86 and 0.9004 and 0.9124"}, {"measurement": "Protease activity (normalized)", "setting": "SARS-CoV-2 3CL protease [1]; 200 nM protease, log10[nM] 3.26761", "result": "0.9439 and 0.9917 and 1.018"}, {"measurement": "Protease activity (normalized)", "setting": "SARS-CoV-2 3CL protease [1]; 200 nM protease, log10[nM] 3.74473", "result": "0.9845 and 1.046 and 1.061"}, {"measurement": "Protease activity (normalized)", "setting": "SARS-CoV-2 3CL protease [1]; 200 nM protease, log10[nM] 4.22185", "result": "0.8912 and 0.9195 and 0.9785"}, {"measurement": "Protease activity (normalized)", "setting": "SARS-CoV-2 3CL protease [1]; 200 nM protease, log10[nM] 4.69897", "result": "0.4548 and 0.5207 and 0.5344"}, {"measurement": "Protease activity (normalized)", "setting": "SARS-CoV-2 3CL protease [1]; 200 nM protease, log10[nM] -0.0722425", "result": "0.8359 and 0.8847 and 0.9024"}, {"measurement": "Protease activity (normalized)", "setting": "SARS-CoV-2 3CL protease [1]; 200 nM protease, log10[nM] -0.549364", "result": "0.7778 and 0.8128 and 0.8188"}, {"measurement": "IC50", "setting": "SARS-CoV-2 3CL protease [1]; [3]", "result": "> 50", "unit": "µM"}]}, {"smiles": "CC(C)(C)OC(=O)NC(C=O)CC1CCNC1=O", "note": "(centres unmarked) [AZVIII-42]", "values": [{"measurement": "Normalized SARS-CoV-2 3CL protease activity", "setting": "SARS-CoV-2 3CL protease [1]", "result": "0.09531 and 0.1273 and 0.138"}, {"measurement": "IC90", "setting": "SARS-CoV-2 3CL protease [1]; 200 nM protease", "result": "> 50", "unit": "µM"}, {"measurement": "activity against SARS-CoV-2 3CL protease (in words)", "setting": "SARS-CoV-2 3CL protease [1]", "result": "functioned slightly better"}]}, {"smiles": "COC(=O)[C@H](C[C@@H]1CCNC1=O)NC(=O)OC(C)(C)C", "note": "[AZVIII-38]", "values": [{"measurement": "Normalized SARS-CoV-2 3CL protease activity", "setting": "SARS-CoV-2 3CL protease [1]", "result": "1.058 and 1.088 and 0.9126"}, {"measurement": "IC50", "setting": "SARS-CoV-2 3CL protease [1]; [3]", "result": "> 50", "unit": "µM"}, {"measurement": "activity against SARS-CoV-2 3CL protease (in words)", "setting": "SARS-CoV-2 3CL protease [1]", "result": "did not produce active compounds"}]}, {"smiles": "CC(C)(C)OC(=O)NC(CO)CC1CCNC1=O", "note": "(centres unmarked) [AZVIII-30]", "values": [{"measurement": "Normalized SARS-CoV-2 3CL protease activity", "setting": "SARS-CoV-2 3CL protease [1]", "result": "0.9915 and 0.9651 and 0.9186"}, {"measurement": "IC50", "setting": "SARS-CoV-2 3CL protease [1]; [3]", "result": "> 50", "unit": "µM"}, {"measurement": "activity against SARS-CoV-2 3CL protease (in words)", "setting": "SARS-CoV-2 3CL protease [1]", "result": "did not produce active compounds"}]}, {"smiles": "CC(C)(C)OC(=O)NC(CC1CCNC1=O)Cn1sc2ccccc2c1=O", "note": "(centres unmarked) [AZVIII-43A]", "values": [{"measurement": "Normalized SARS-CoV-2 3CL protease activity", "setting": "SARS-CoV-2 3CL protease [1]", "result": "1.104 and 1.129 and 1.238"}, {"measurement": "IC50", "setting": "SARS-CoV-2 3CL protease [1]; [3]", "result": "> 50", "unit": "µM"}, {"measurement": "activity against SARS-CoV-2 3CL protease (in words)", "setting": "SARS-CoV-2 3CL protease [1]", "result": "did not produce active compounds"}]}, {"smiles": "COc1ccc(CNS(=O)(=O)c2cccnc2)cc1", "note": "[AZVIII-44H]", "values": [{"measurement": "Normalized SARS-CoV-2 3CL protease activity", "setting": "SARS-CoV-2 3CL protease [1]", "result": "0.9803 and 0.9852 and 1.015"}, {"measurement": "IC50", "setting": "SARS-CoV-2 3CL protease [1]; [3]", "result": "> 50", "unit": "µM"}]}, {"smiles": "O=S(=O)(NCc1ccccc1)c1cccnc1", "note": "[AZVIII-44E]", "values": [{"measurement": "Normalized SARS-CoV-2 3CL protease activity", "setting": "SARS-CoV-2 3CL protease [1]", "result": "1.222 and 1.184 and 1.143"}, {"measurement": "IC50", "setting": "SARS-CoV-2 3CL protease [1]; [3]", "result": "> 50", "unit": "µM"}]}, {"smiles": "O=CCN(Cc1ccccc1)S(=O)(=O)c1ccccc1", "note": "[AZVIII-57D]", "values": [{"measurement": "Normalized SARS-CoV-2 3CL protease activity", "setting": "SARS-CoV-2 3CL protease [1]", "result": "1.196 and 1.186 and 0.9817"}, {"measurement": "IC50", "setting": "SARS-CoV-2 3CL protease [1]; [3]", "result": "> 50", "unit": "µM"}]}, {"smiles": "CC(C)C[C@H](NC(=O)OC(C)(C)C)C(=O)N[C@H](CO)C[C@@H]1CCNC1=O", "note": "[AZVIII-37A]", "values": [{"measurement": "Normalized SARS-CoV-2 3CL protease activity", "setting": "SARS-CoV-2 3CL protease [1]", "result": "0.8312 and 1.007 and 1.0118"}, {"measurement": "IC50", "setting": "SARS-CoV-2 3CL protease [1]; [3]", "result": "> 50", "unit": "µM"}, {"measurement": "activity against SARS-CoV-2 3CL protease (in words)", "setting": "SARS-CoV-2 3CL protease [1]", "result": "inactive"}]}]}
